Test [1] has as its target T1, Proto-oncogene tyrosine-protein kinase Src (Homo sapiens, UniProt P12931).
In test [2] the target is T2, Mitogen-activated protein kinase 14 (Homo sapiens, UniProt Q16539).
Test [3] addresses T1, Proto-oncogene tyrosine-protein kinase Src. Particulars: 2 uM; call rule not given here.
Test [4] has as its target T2, Mitogen-activated protein kinase 14. Particulars: 2 uM.

T2 sequence (Q16539 whole entry): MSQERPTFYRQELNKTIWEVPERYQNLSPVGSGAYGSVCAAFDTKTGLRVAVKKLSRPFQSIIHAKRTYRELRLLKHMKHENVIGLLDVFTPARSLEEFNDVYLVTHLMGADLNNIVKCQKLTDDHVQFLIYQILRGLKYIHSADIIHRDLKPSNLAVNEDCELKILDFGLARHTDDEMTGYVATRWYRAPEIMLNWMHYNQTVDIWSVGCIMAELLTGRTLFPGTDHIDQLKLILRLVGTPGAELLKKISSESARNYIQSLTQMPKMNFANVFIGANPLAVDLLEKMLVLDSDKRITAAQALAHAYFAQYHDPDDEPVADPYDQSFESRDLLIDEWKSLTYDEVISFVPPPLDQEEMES
T1 sequence (P12931 2-536 limits assumed): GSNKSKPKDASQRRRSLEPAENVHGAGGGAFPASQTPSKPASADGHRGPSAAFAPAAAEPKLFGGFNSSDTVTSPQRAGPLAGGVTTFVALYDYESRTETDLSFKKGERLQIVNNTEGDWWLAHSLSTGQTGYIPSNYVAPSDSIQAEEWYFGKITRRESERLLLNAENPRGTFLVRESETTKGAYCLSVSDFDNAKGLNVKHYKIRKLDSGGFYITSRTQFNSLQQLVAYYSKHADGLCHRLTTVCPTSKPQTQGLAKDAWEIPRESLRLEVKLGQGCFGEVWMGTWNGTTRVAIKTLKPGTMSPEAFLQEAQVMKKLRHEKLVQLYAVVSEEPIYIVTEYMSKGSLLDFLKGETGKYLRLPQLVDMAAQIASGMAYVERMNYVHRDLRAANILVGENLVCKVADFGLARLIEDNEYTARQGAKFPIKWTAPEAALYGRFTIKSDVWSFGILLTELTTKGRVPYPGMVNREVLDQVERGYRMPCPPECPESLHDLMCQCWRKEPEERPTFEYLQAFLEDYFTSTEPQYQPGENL

For the molecule `CC(C)(C)c1cc(NC(=O)Nc2ccc(Cl)cc2)n(-c2c(Cl)cc(C(F)(F)F)cc2Cl)n1`, the IC50 result in test [1] is on record as “Not Active”. In addition, the Kd result in test [2] is on record as “Not Active”.

`CC(C)(C)c1cc(NC(=O)Nc2ccc(Cl)cc2)n(-c2cccc(N)c2)n1`: the T1/2 in test [3] amounted to 5.35 s; in test [4] it was 43.6 s.

Values taken from ChEMBL document CHEMBL1212717, “A new screening assay for allosteric inhibitors of cSrc” (Nat Chem Biol, 2009).
